These results are taken from article PMC6658998, “Pharmacological characterization of the seven human NOX isoforms and their inhibitors” (Redox Biology, 2019).

SMILES strings stand for the structures.

Type in all cases: cell-based
Assay [1] has as its target T1, NOX2 (Homo sapiens, UniProt P04839).
T1 sequence (P04839 2-570 limits assumed): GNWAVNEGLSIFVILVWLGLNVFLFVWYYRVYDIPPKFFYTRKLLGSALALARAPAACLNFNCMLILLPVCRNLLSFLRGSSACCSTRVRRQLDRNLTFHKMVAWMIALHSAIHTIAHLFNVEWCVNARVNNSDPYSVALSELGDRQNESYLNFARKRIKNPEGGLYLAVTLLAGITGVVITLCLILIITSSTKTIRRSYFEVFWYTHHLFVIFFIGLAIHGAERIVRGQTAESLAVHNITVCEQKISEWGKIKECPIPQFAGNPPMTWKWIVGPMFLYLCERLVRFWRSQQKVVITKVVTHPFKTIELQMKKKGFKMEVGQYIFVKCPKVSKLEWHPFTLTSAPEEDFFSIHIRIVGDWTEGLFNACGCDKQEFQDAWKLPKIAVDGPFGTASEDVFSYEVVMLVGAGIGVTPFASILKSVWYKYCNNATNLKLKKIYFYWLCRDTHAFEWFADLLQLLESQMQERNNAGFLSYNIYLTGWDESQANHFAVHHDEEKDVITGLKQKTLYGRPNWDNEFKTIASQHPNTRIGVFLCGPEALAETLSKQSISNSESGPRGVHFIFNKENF
T1 sequence (P13498 1-195 partner): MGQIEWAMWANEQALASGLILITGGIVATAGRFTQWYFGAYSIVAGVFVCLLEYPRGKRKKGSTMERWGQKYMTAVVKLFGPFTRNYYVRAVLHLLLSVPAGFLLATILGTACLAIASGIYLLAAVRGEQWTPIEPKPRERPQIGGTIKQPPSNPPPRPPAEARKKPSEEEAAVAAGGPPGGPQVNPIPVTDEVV
In words: NOX2-dependent oxygen consumption in PMA-activated human neutrophils (Seahorse). The note with it: 100 nM PMA. How it is done:
Human polymorphonuclear leukocytes (PMN) were isolated from fresh whole blood collected from healthy volunteers as described. Briefly, 32 mL blood was collected in 8 mL sodium citrate (3.8%) and blood cells sedimented for 40 min with dextran T500 (4% in NaCl 0.9%). The upper yellowish fraction containing leukocytes was collected and centrifugated at 380×g for 10 min. Pellets were resuspended in PBS and separated using Ficoll Plaque™ Plus (450 ×g , with no brake) for 15 min, RT. Red blood cells were lysed by addition of 5 mL H2O for 30 s followed by addition of 5 mL NaCl 1.8%. Remaining PMN were collected by centrifugation for 10 min at 250 ×g , washed and resuspended in HBSS, counted and kept on ice for a maximum of 30 min until they were used for oxygen consumption measurement.
Oxygen consumption was determined using human neutrophils and NOX4 T-Rex HEK293 cells using the Seahorse XF24 Extracellular Flux Analyzer. Neutrophils were plated in 24-well microplates (250,000 cells/well in 200 μL HBSS) and incubated at room temperature for 15 min for attachment. The medium was changed to DMEM without sodium bicarbonate containing 10 mM Hepes prewarmed to 37 °C, and the cells were incubated for 30 min at 37 °C in a non-CO2 incubator. Basal oxygen consumption was recorded for 8 min followed by addition of compounds and 8 min preincubation. PMA (100 nM) was added where indicated and the oxygen consumption rate was determined for two cycles of 8 min each. The signal obtained from neutrophils without PMA treatment was subtracted as a blank, while the signal obtained from PMA + DMSO-treated neutrophils was considered as 100%.

Assay [2] has as its target T2, NOX3 (Homo sapiens, UniProt Q9HBY0).
T2 sequence (Q9HBY0 1-568): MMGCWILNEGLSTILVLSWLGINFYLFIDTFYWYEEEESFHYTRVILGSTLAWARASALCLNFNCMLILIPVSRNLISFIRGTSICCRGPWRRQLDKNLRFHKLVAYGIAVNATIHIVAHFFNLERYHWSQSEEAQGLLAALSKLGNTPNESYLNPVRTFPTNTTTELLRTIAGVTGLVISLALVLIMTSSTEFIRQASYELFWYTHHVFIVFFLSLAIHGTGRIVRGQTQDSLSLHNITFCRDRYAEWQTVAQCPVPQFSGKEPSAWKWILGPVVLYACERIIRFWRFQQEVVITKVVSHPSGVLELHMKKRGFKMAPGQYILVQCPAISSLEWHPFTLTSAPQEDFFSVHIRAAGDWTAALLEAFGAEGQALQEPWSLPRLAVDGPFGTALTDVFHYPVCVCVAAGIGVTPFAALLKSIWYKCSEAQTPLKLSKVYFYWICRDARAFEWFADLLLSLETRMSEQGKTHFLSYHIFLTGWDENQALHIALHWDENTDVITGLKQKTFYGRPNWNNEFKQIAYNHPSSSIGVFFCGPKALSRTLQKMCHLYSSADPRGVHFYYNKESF
T2 sequence (P13498 1-195 partner): T1 sequence (P13498 1-195 partner)
T2 sequence (Q8NFA2 1-376 partner): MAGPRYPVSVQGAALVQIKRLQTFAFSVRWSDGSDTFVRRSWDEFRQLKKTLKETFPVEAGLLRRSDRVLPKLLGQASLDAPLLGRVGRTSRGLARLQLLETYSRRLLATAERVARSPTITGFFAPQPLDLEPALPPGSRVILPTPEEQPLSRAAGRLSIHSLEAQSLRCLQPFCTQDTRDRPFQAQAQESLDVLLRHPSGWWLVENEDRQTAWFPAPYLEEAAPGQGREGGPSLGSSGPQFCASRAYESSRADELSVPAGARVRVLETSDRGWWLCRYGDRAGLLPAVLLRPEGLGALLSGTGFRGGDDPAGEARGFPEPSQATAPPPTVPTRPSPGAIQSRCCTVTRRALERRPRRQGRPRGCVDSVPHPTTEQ
In words: Amplex Red/HRP H2O2 detection in tetracycline-induced NOX3 HEK293 T-REx cells. The source says: (§1) Compounds were dispensed prior addition of cells.

For assay [3], the target named is T2, NOX3. In words: WST-1 O2•- detection in tetracycline-induced NOX3 HEK293 T-REx cells.
Source text: as §1
(Tetrazolium dyes change colour on reduction, which living cells bring about.)

The mark [4] stands for this setting: Amplex red/HRP, tetracycline 1 μg/mL 24 h, read-out: IC50 NOX3 (T-REx) AR.
[5] abbreviates: WST-1, tetracycline 1 μg/mL 24 h, read-out: IC50 NOX3 (T-REx) WST-1.

Usually IC50 stands for the concentration at which inhibition is half-maximal. Regarding `c1ccc2c(c1)[I+]c1ccccc1-2` [DPI, diphenylene iodonium chloride], the “Inhibition of NOX2-dependent oxygen consumption” value (shortened to “Inhibition”) in assay [1] (concentration not given) is reported as “inhibited”. Further, the IC50 in assay [2] came to 2.2 µM; in assay [3], 0.2 µM.
As for `O=c1c2ccccc2[se]n1-c1ccccc1` [Ebselen, ebselen], the “Inhibition” value in assay [1] (concentration not given) is given as “inhibited”. Also, the IC50 came to 2.9 µM in assay [2] (setting [4]) and 35 µM in assay [3] (setting [5]).
For `COc1cc(C(C)=O)ccc1O` [Apocynin, apocynin], in assay [1] (compound 300 μM), the “Inhibition” value is on record as “only weakly”. For the same compound, the IC50 in assay [2] (setting [4]) and in assay [3] (setting [5]) was greater than 50 µM in each case.
`COc1cc(C(C)=O)cc(-c2cc(C(C)=O)cc(OC)c2O)c1O` [Diapocynin, diapocynin]: in assay [1] (compound 50 μM), the “Inhibition” value was “only weakly”. In addition, the IC50 in assay [2] (setting [4]) and in assay [3] (setting [5]) was greater than 50 µM throughout.
On to `Cc1c2c(=O)n(-c3ccccc3Cl)[nH]c2cc(=O)n1Cc1ccccn1` [GKT136901], for which, in assay [1] (compound 50 μM), the “Inhibition” value was “not”. For the same compound, the values for the concentration for half-maximal inhibition (IC50) in assay [2] (setting [4]) and in assay [3] (setting [5]) were 5.7 µM and greater than 50 µM, respectively.
Consider `c1ccc(Cn2nnc3c(Sc4nc5ccccc5o4)ncnc32)cc1` [VAS2870, 3-benzyl-7-(2-benzoxazolyl)thio-1,2,3-triazolo[4,5-d]pyrimidine], for which, in assay [1] (concentration not given), the “Inhibition” value is “inhibited”. The concentration for half-maximal inhibition (IC50) in assay [2] (setting [4]) and in assay [3] (setting [5]) was greater than 50 µM each time.
